Literature values, collected in publication PMC12281572.
“And” between values parts separate entries of the source, which are not always exact repeats. Equal entries are not always repeated.

Assay: FTIR, 4-fluorophenol as donor (the pK_BHX database, per the paper)
Conditions: CCl4; 25 C

Compound	pK_BHX (log10 Kf of the 1:1 H-bond complex with 4-fluorophenol, by FTIR)
c1ccc(C2CCCCC2)cc1	-0.32 log units
CN(C)c1ccncc1	2.8 log units
CC(C)(C)C(=O)N(C1CCCCC1)C1CCCCC1	2.06 log units
Cc1ccc(S(=O)c2ccc(C)cc2)cc1	2.21 log units
c1ccnnc1	1.65 log units
CCCCCF	-0.06 log units
O=C1CCCC1	1.27 log units
CN(C)C=NCc1cccc(Cl)c1	2.1 log units
CC(C)SC(C)C	0.3 log units
CCCCSCCCC	0.23 log units
CC(=O)N(C(C)C)C(C)C	2.47 log units
O=C(c1ccccc1)N(c1ccccc1)c1ccccc1	1.61 log units
CCc1ccccn1	1.94 log units
CCCN=C(NC)NC#N	2.09 log units
CN1CC=CCC1	2.02 log units
COC(OC)OC	0.55 log units
CCN(CC)C(=O)c1cccnc1	1.98 log units and 1.63 log units
CN1CCN(C)CC1	1.88 log units
CCC(C)(C)N=CN(C)C	2.26 log units
COCCOC	1.02 log units
CC(=O)c1cccnc1	1.39 log units and 0.9 log units
CCOC(=O)C=Cc1ccccc1	1.14 log units
CO	0.82 log units
OC12CC3CC(CC(C3)C1)C2	1.27 log units

Compound	pK_BHX (log10 Kf of the 1:1 H-bond complex with 4-fluorophenol, by FTIR)
Cc1ccccc1C#N	0.83 log units
c1ccc(Cc2ccccc2)cc1	-0.41 log units
CN=CN(C)C	2.7 log units
CC(=Nc1ccc(Br)cc1)N(C)c1ccc(Br)cc1	1.19 log units
N#Cc1ccccc1C(F)(F)F	0.57 log units
CCN(C)Cc1ccccc1	1.47 log units
CN(C)C=Nc1ccccc1	1.9 log units
CNC1CCCCC1	2.24 log units
CC(=Nc1cccc(Cl)c1)N(C)c1cccc(Cl)c1	1.05 log units
Brc1ccc(N=C(Nc2ccc(Br)cc2)c2ccccc2)cc1	0.87 log units
c1ccc2c(c1)Cc1ccccc1-2	-0.38 log units
CC(C)(C)N=Cc1ccccc1	1.29 log units
C1CCOC1	1.28 log units
Cc1ccnc2c1ccc1c(C)ccnc12	3.34 log units
CN(C)C=Nc1ccc(C#N)cc1	1.32 log units and 1.23 log units
CCSC(=O)OC	0.73 log units
CNC(C)C	2.2 log units
OC(C(F)(F)F)C(F)(F)F	-0.96 log units
S=C1SCCS1	0.3 log units
CCCCc1ccccn1	1.88 log units
C=CCN(C)C	1.92 log units
c1ccc2cnncc2c1	1.97 log units
CCCCCCCCO	1.04 log units
c1ccc(Sc2ccccc2)cc1	-0.51 log units and -0.93 log units

Compound	pK_BHX (log10 Kf of the 1:1 H-bond complex with 4-fluorophenol, by FTIR)
CCOC(=O)C(=O)OCC	0.65 log units
CC(=O)c1ccccc1	1.11 log units
CN(C)C=NC#N	2.09 log units
C#CCN	1.56 log units
CN(C)C=NS(=O)(=O)c1ccccc1	1.51 log units
CC(C)N=CN(C)C	2.6 log units
Cc1ccc(C)c(C)c1C	-0.14 log units
CCN(C=C[N+](=O)[O-])CC	1.58 log units
c1ccc2cnccc2c1	1.94 log units
O=S(c1ccccc1)c1ccccc1	2.04 log units
CC1=CCCCC1	-0.74 log units
Cc1ccc(C#N)cc1	0.88 log units
CN(C)n1cccc1	0.23 log units
O=S(Cc1ccccc1)Cc1ccccc1	2.43 log units
CN(C)C=NC1CCCCC1	2.59 log units
OCc1ccccc1	0.86 log units
CCSSCC	-0.4 log units
CN(C)C=NC(=S)c1ccccc1	1.23 log units
CNC=O	1.96 log units
CN(C)C=NC12CC3CC(CC(C3)C1)C2	2.52 log units
CC(C)c1ccccc1	-0.34 log units
N#Cc1ccccc1	0.8 log units
CCCO	1.0 log units
CN(C)CCCn1c2ccccc2c2ccccc21	1.88 log units
